The text below walks through data of paper PMC4624765, “C-di-GMP Regulates Motile to Sessile Transition by Modulating MshA Pili Biogenesis and Near-Surface Motility Behavior in Vibrio cholerae” (PLoS Pathogens, 2015).

In experiment [1] the target is T1, MshE (Vibrio cholerae, UniProt Q9KUV7). The experiment is described as follows: fluorescence thermal shift (SYPRO Orange). In kind it is binding. The arrangement: gene VC_0405; full-length, expressed in E. coli BL21, purified on GST column with glutathione elution. The following applies: 25 mM Tris-HCl pH 7.5, 100 mM NaCl, 0.2 mM MgCl2.
T1 sequence (Q9KUV7 1-575): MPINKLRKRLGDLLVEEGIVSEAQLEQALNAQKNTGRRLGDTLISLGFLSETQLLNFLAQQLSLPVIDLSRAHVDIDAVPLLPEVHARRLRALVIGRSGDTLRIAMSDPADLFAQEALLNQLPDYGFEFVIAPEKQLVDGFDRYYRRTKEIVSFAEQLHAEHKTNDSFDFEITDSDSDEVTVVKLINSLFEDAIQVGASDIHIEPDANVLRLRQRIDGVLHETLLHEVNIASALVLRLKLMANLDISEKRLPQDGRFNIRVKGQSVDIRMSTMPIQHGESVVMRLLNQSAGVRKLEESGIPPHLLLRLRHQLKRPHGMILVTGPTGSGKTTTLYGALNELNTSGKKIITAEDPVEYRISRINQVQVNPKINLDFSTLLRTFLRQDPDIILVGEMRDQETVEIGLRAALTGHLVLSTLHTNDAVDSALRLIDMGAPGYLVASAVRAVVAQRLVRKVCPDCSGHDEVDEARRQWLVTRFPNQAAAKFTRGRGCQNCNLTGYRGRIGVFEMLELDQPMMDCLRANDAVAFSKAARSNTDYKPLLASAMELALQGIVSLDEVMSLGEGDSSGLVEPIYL
The target of experiment [2] is T1, MshE. The experiment is described as follows: biochemical. The arrangement: gene VC_0405.
In a further experiment the target is T2, VpsT (Vibrio cholerae, UniProt Q9KKZ8).
T2 construct: gene VC_A0952
The experiment is described as follows: biochemical.

For another experiment, the target named is T3, MshE N-terminal domain (Vibrio cholerae, UniProt Q9KUV7).
T3 construct: gene VC_0405; N-terminal domain, residues 1-180, expressed in E. coli BL21
T3 sequence (Q9KUV7 1-180 limits assumed): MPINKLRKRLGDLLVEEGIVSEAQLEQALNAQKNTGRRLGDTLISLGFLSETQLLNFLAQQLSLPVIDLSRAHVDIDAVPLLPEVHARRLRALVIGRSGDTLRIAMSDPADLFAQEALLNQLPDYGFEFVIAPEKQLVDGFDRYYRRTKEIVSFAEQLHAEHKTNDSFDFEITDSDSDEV
The experiment is described as follows: fluorescence thermal shift (SYPRO Orange). In kind it is binding. The note with it: 25 mM Tris-HCl pH 7.5, 100 mM NaCl, 0.2 mM MgCl2.

SMILES strings stand for the structures.

Take `Nc1ncnc2c1ncn2[C@@H]1O[C@H](COP(=O)(O)OP(=O)(O)OP(=O)(O)O)[C@@H](O)[C@H]1O` [ATP]: the “Tm with 2 mM ligand” value on MshE [1] was 40.15 ±1.02 °C.
Usually Kd stands for the equilibrium constant for the complex coming apart. A high value points to lower affinity. With `Nc1nc2c(ncn2[C@@H]2O[C@@H]3COP(=O)(O)O[C@H]4[C@@H](O)[C@H](n5cnc6c(=O)[nH]c(N)nc65)O[C@@H]4COP(=O)(O)O[C@H]3[C@H]2O)c(=O)[nH]1` [c-di-GMP], the equilibrium dissociation constant (Kd) was 8.77 µM on MshE [2] and 10.1 µM on VpsT. The “Tm with 2 mM ligand” value on MshE [1] turned out to be 42.77±0.70 °C; at MshE N-terminal domain, 70.18 ±0.55 °C.
